Data published in US12655125B2 (SIRONAX LTD., priority 2020, dated 2026).
Read-outs that look alike come from different tables or passages of the source.

Tested on: HT-29 cells
Assay: HT29 Cells 0FBS Assay In Vitro (TNF-α/SMAC mimetic/zVAD-FMK induced necroptosis, CellTiter-Glo cell viability)
Type: cell-based
Conditions: Homo sapiens, read-out: Cell activity (EC50) of Compounds 1-116
Procedure, shortened: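 HT-29 cells (5,000/well, seeded overnight) in serum-free McCoy's 5A were stimulated with TNF-α 10 ng/ml, SMAC mimetic 6 μM and zVAD-FMK 10 μM to induce necroptosis. Compound added as 10-point 3-fold series for 20 h at 37° C. CellTiter-Glo luminescence gives viability; EC50 is geometric mean of duplicate dose-responses.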

[1] = HT-29 cells, FBS free medium, TNF-α (10 ng/ml), SMAC mimetic (6 uM), zVAD-FMK (10 μM), 20 hours, geometric mean EC50

SMILES | EC50 [1] [µM] | EC50 (HT-29, 20 h) [µM]
CC(C)C(=O)Nc1cnn(C)c1-c1cc(OC2CN(C(=O)N3N=CC[C@H]3c3cc(F)cc(F)c3)C2)c(F)cn1 [compound 59, (S)—N-(5-(4-((1-(5-(3,5-difluorophenyl)-4,5-dihydro-1H-pyrazole-1-carbonyl)azetidin-3-yl)oxy)-5-fluoropyridin-2-yl)-1-methyl-1H-pyrazol-4-yl)isobutyramide] | 0.0001 to 0.1 | –
CC(C)CC(=O)Nc1cnn(C)c1-c1cc(OC2CN(C(=O)N3N=CC[C@H]3c3cc(F)cc(F)c3)C2)c(F)cn1 [compound 60, (S)—N-(5-(4-((1-(5-(3,5-difluorophenyl)-4,5-dihydro-1H-pyrazole-1-carbonyl)azetidin-3-yl)oxy)-5-fluoropyridin-2-yl)-1-methyl-1H-pyrazol-4-yl)-3-methylbutanamide] | 0.0001 to 0.1 | –
CNC(=O)CNc1cnn(C)c1-c1cc(OC2CN(C(=O)N3N=CC[C@H]3c3cc(F)cc(F)c3)C2)c(F)cn1 [compound 61, (S)-2-((5-(4-((1-(5-(3,5-difluorophenyl)-4,5-dihydro-1H-pyrazole-1-carbonyl)azetidin-3-yl)oxy)-5-fluoropyridin-2-yl)-1-methyl-1H-pyrazol-4-yl)amino)-N-methylacetamide] | 0.0001 to 0.1 | –
Cn1ncc(NCC(=O)N2CCOCC2)c1-c1cc(OC2CN(C(=O)N3N=CC[C@H]3c3cc(F)cc(F)c3)C2)c(F)cn1 [compound 62, (S)-2-((5-(4-((1-(5-(3,5-difluorophenyl)-4,5-dihydro-1H-pyrazole-1-carbonyl)azetidin-3-yl)oxy)-5-fluoropyridin-2-yl)-1-methyl-1H-pyrazol-4-yl)amino)-1-morpholinoethan-1-one] | 0.0001 to 0.1 | –
CN(C)C(=O)CNc1cnn(C)c1-c1cc(OC2CN(C(=O)N3N=CC[C@H]3c3cc(F)cc(F)c3)C2)c(F)cn1 [compound 63, (S)-2-((5-(4-((1-(5-(3,5-difluorophenyl)-4,5-dihydro-1H-pyrazole-1-carbonyl)azetidin-3-yl)oxy)-5-fluoropyridin-2-yl)-1-methyl-1H-pyrazol-4-yl)amino)-N,N-dimethylacetamide] | 0.0001 to 0.1 | –
COC(=O)c1cnn(C)c1-c1cc(OC2CN(C(=O)N3N=CC[C@H]3c3cc(F)cc(F)c3)C2)c(F)cn1 [compound 64, methyl (S)-5-(4-((1-(5-(3,5-difluorophenyl)-4,5-dihydro-1H-pyrazole-1-carbonyl)azetidin-3-yl)oxy)-5-fluoropyridin-2-yl)-1-methyl-1H-pyrazole-4-carboxylate] | 0.0001 to 0.1 | –
Cn1ncc(C(=O)O)c1-c1cc(OC2CN(C(=O)N3N=CC[C@H]3c3cc(F)cc(F)c3)C2)c(F)cn1 [compound 65, (S)-5-(4-((1-(5-(3,5-difluorophenyl)-4,5-dihydro-1H-pyrazole-1-carbonyl)azetidin-3-yl)oxy)-5-fluoropyridin-2-yl)-1-methyl-1H-pyrazole-4-carboxylic acid] | 1 to 10 | –
Cn1ncc(C(N)=O)c1-c1cc(OC2CN(C(=O)N3N=CC[C@H]3c3cc(F)cc(F)c3)C2)c(F)cn1 [compound 66, (S)-5-(4-((1-(5-(3,5-difluorophenyl)-4,5-dihydro-1H-pyrazole-1-carbonyl)azetidin-3-yl)oxy)-5-fluoropyridin-2-yl)-1-methyl-1H-pyrazole-4-carboxamide] | 0.0001 to 0.1 | –
CNC(=O)c1cnn(C)c1-c1cc(OC2CN(C(=O)N3N=CC[C@H]3c3cc(F)cc(F)c3)C2)c(F)cn1 [compound 67, (S)-5-(4-((1-(5-(3,5-difluorophenyl)-4,5-dihydro-1H-pyrazole-1-carbonyl)azetidin-3-yl)oxy)-5-fluoropyridin-2-yl)-N,1-dimethyl-1H-pyrazole-4-carboxamide] | 0.0001 to 0.1 | –
CN(C)C(=O)c1cnn(C)c1-c1cc(OC2CN(C(=O)N3N=CC[C@H]3c3cc(F)cc(F)c3)C2)c(F)cn1 [compound 68, (S)-5-(4-((1-(5-(3,5-difluorophenyl)-4,5-dihydro-1H-pyrazole-1-carbonyl)azetidin-3-yl)oxy)-5-fluoropyridin-2-yl)-N,N,1-trimethyl-1H-pyrazole-4-carboxamide] | 1 to 10 | –
CN(C)CCNC(=O)c1cnn(C)c1-c1cc(OC2CN(C(=O)N3N=CC[C@H]3c3cc(F)cc(F)c3)C2)c(F)cn1 [compound 69, (S)-5-(4-((1-(5-(3,5-difluorophenyl)-4,5-dihydro-1H-pyrazole-1-carbonyl)azetidin-3-yl)oxy)-5-fluoropyridin-2-yl)-N-(2-(dimethylamino)ethyl)-1-methyl-1H-pyrazole-4-carboxamide] | 0.1 to 1 | –
CC(C)CNC(=O)c1cnn(C)c1-c1cc(OC2CN(C(=O)N3N=CC[C@H]3c3cc(F)cc(F)c3)C2)c(F)cn1 [compound 70, (S)-5-(4-((1-(5-(3,5-difluorophenyl)-4,5-dihydro-1H-pyrazole-1-carbonyl)azetidin-3-yl)oxy)-5-fluoropyridin-2-yl)-N-isobutyl-1-methyl-1H-pyrazole-4-carboxamide] | 0.0001 to 0.1 | –
CCNC(=O)c1cnn(C)c1-c1cc(OC2CN(C(=O)N3N=CC[C@H]3c3cc(F)cc(F)c3)C2)c(F)cn1 [compound 71, (S)-5-(4-((1-(5-(3,5-difluorophenyl)-4,5-dihydro-1H-pyrazole-1-carbonyl)azetidin-3-yl)oxy)-5-fluoropyridin-2-yl)-N-ethyl-1-methyl-1H-pyrazole-4-carboxamide] | 0.0001 to 0.1 | –
Cn1ncc(C(=O)N2CCC2)c1-c1cc(OC2CN(C(=O)N3N=CC[C@H]3c3cc(F)cc(F)c3)C2)c(F)cn1 [compound 72, (S)-azetidin-1-yl(5-(4-((1-(5-(3,5-difluorophenyl)-4,5-dihydro-1H-pyrazole-1-carbonyl)azetidin-3-yl)oxy)-5-fluoropyridin-2-yl)-1-methyl-1H-pyrazol-4-yl)methanone] | 0.1 to 1 | –
Cn1ncc(C(=O)N2CC(O)C2)c1-c1cc(OC2CN(C(=O)N3N=CC[C@H]3c3cc(F)cc(F)c3)C2)c(F)cn1 [compound 73, (S)-(5-(3,5-difluorophenyl)-4,5-dihydro-1H-pyrazol-1-yl)(3-((5-fluoro-2-(4-(3-hydroxyazetidine-1-carbonyl)-1-methyl-1H-pyrazol-5-yl)pyridin-4-yl)oxy)azetidin-1-yl)methanone] | 0.1 to 1 | –
COC1CN(C(=O)c2cnn(C)c2-c2cc(OC3CN(C(=O)N4N=CC[C@H]4c4cc(F)cc(F)c4)C3)c(F)cn2)C1 [compound 74, (S)-(5-(3,5-difluorophenyl)-4,5-dihydro-1H-pyrazol-1-yl)(3-((5-fluoro-2-(4-(3-methoxyazetidine-1-carbonyl)-1-methyl-1H-pyrazol-5-yl)pyridin-4-yl)oxy)azetidin-1-yl)methanone] | 0.1 to 1 | –
Cn1ncc(C(=O)N2CCCC2)c1-c1cc(OC2CN(C(=O)N3N=CC[C@H]3c3cc(F)cc(F)c3)C2)c(F)cn1 [compound 75, (S)-(5-(3,5-difluorophenyl)-4,5-dihydro-1H-pyrazol-1-yl)(3-((5-fluoro-2-(1-methyl-4-(pyrrolidine-1-carbonyl)-1H-pyrazol-5-yl)pyridin-4-yl)oxy)azetidin-1-yl)methanone] | 1 to 10 | –
Cn1ncc(C(=O)N2CCCCC2)c1-c1cc(OC2CN(C(=O)N3N=CC[C@H]3c3cc(F)cc(F)c3)C2)c(F)cn1 [compound 76, (S)-(5-(3,5-difluorophenyl)-4,5-dihydro-1H-pyrazol-1-yl)(3-((5-fluoro-2-(1-methyl-4-(piperidine-1-carbonyl)-1H-pyrazol-5-yl)pyridin-4-yl)oxy)azetidin-1-yl)methanone] | 1 to 10 | –
Cn1ncc(C(=O)N2CCOCC2)c1-c1cc(OC2CN(C(=O)N3N=CC[C@H]3c3cc(F)cc(F)c3)C2)c(F)cn1 [compound 77, (S)-(5-(3,5-difluorophenyl)-4,5-dihydro-1H-pyrazol-1-yl)(3-((5-fluoro-2-(1-methyl-4-(morpholine-4-carbonyl)-1H-pyrazol-5-yl)pyridin-4-yl)oxy)azetidin-1-yl)methanone] | 1 to 10 | –
Cn1ncc(CO)c1-c1cc(OC2CN(C(=O)N3N=CC[C@H]3c3cc(F)cc(F)c3)C2)c(F)cn1 [compound 78, (S)-(5-(3,5-difluorophenyl)-4,5-dihydro-1H-pyrazol-1-yl)(3-((5-fluoro-2-(4-(hydroxymethyl)-1-methyl-1H-pyrazol-5-yl)pyridin-4-yl)oxy)azetidin-1-yl)methanone] | 0.0001 to 0.1 | –
CN(C)Cc1cnn(C)c1-c1cc(OC2CN(C(=O)N3N=CC[C@H]3c3cc(F)cc(F)c3)C2)c(F)cn1 [compound 79, (S)-(5-(3,5-difluorophenyl)-4,5-dihydro-1H-pyrazol-1-yl)(3-((2-(4-((dimethylamino)methyl)-1-methyl-1H-pyrazol-5-yl)-5-fluoropyridin-4-yl)oxy)azetidin-1-yl)methanone] | – | 0.0001 to 0.1
COCc1cnn(C)c1-c1cc(OC2CN(C(=O)N3N=CC[C@H]3c3cc(F)cc(F)c3)C2)c(F)cn1 [compound 80, (S)-(5-(3,5-difluorophenyl)-4,5-dihydro-1H-pyrazol-1-yl)(3-((5-fluoro-2-(4-(methoxymethyl)-1-methyl-1H-pyrazol-5-yl)pyridin-4-yl)oxy)azetidin-1-yl)methanone] | 0.0001 to 0.1 | –
Cn1ncc(F)c1-c1cc(OC2CN(C(=O)N3N=CC[C@H]3c3cc(F)cc(F)c3)C2)c(F)cn1 [compound 81, (S)-(5-(3,5-difluorophenyl)-4,5-dihydro-1H-pyrazol-1-yl)(3-((5-fluoro-2-(4-fluoro-1-methyl-1H-pyrazol-5-yl)pyridin-4-yl)oxy)azetidin-1-yl)methanone] | 0.0001 to 0.1 | –
Cn1ncc(F)c1-c1ncc(F)c(OC2CN(C(=O)N3N=CC[C@H]3c3cc(F)cc(F)c3)C2)n1 [compound 82, (S)-(5-(3,5-difluorophenyl)-4,5-dihydro-1H-pyrazol-1-yl)(3-((5-fluoro-2-(4-fluoro-1-methyl-1H-pyrazol-5-yl)pyrimidin-4-yl)oxy)azetidin-1-yl)methanone] | 0.0001 to 0.1 | –
